According to patent publication US8816109B2, “Process for preparation of hexadecyl cis-9-tetradecenoate and hexadecyl cis-10-tetradecenoate” (Council of Scientific & Industrial Research, priority 2009, dated 2014):

Tests used:
[1] = tested on: carrageenan induced paw edema; test: carrageenan induced rat paw edema model (anti-inflammatory potential); assay type: in vivo; settings: rats
Protocol: (§1) The anti-inflammatory activity potential of both the isomers of the cetyl myristoleate (4 & 8) was evaluated initially in carrageenan induced rat paw edema model employing the method of Winter et al (Winter C A, Risley E A and Nuss G W, J. Pharmacolo. Exp. Ther. 1963; 141:369-376). The arthritis developed by injecting Freund's Complete Adjuvant in Wistar rats is almost similar to the rheumatoid arthritis of the human beings.
Evaluation Studies of Hexadecyl cis-9-Tetradecenoate and Hexadecyl cis-10-Tetradecenoate for Anti-inflammatory. Potential: Hexadecyl cis-9-tetradecenoate, 4 and hexadecyl cis-10-tetradecenoate, 8 produced synthetically exemplified above in Scheme 1 and Scheme 2 were assessed for the anti-inflammatory potential against carrageenan induced paw edema model. Rats were divided into 4 groups. Hexadecyl cis-9-tetradecenoate, 4. and hexadecyl cis-10-tetradecenoate, 8 were administered intraperitoneally to rats in two different groups at a dose of 400 mg/kg. […] Paw volumes were measured using plethysmometer before injecting carrageenan. Paw volumes were again measured 3 hr after the carrageenan administration. The anti-inflammatory potential of hexadecyl cis-9-tetradecenoate, 4 and hexadecyl cis-10-tetradecenoate, 8 were assessed by measuring the inhibition of the paw volumes with reference to mean paw volume in control group.

[2] = tested on: Freund's complete adjuvant induced arthritis; test: Freund's complete adjuvant induced arthritis model, treatment of established arthritis; assay type: in vivo, Male Wistar rats; settings: for dose dependence of inhibition of arthritis: dose increased from 100 mg/kg to 300 mg/kg
Protocol: as §1
Effect of Hexadecyl cis-9-Tetradecenoate and Hexadecyl cis-10-Tetradecenoate on the Arthritic Rats: The hexadecyl cis-9-tetradecenoate, 4 and hexadecyl cis-10-tetradecenoate, 8 produced synthetically given above in Scheme 1 and 2 were subjected to evaluation for anti-arthritic potential in Freund's complete adjuvant induced arthritis model in rats. Male Wistar rats were divided into 4 groups each containing 6 rats. Arthritis was induced in rats in all the groups by administering Complete Freund's Adjuvant (CFA) at the dose of 1 mg per rat by injecting at sub plantar region of the right hind paw. Paw volumes were measured for both paws on every alternate day till 14 days and till full arthritis was developed.

[3] = tested on: Freund's Complete Adjuvant induced poly arthritis; test: Freund's complete adjuvant induced polyarthritis, protection (dosing from 24 hr after adjuvant); assay type: in vivo, Male Wistar rats
Protocol: Evaluation of Hexadecyl cis-10-Tetradecenoate for Anti-arthritic Potential in Rats: The hexadecyl cis-10-tetradecenoate, 8 produced synthetically exemplified above in Scheme 2 was administered parenterally, particularly, by intraperitoneal route, either alone or in a compatible pharmaceutical carrier such as vegetable oils namely groundnut, sesame and cottonseed [for adjusting the dose volume of the active compound(s)] to male rats ranging in weight from 150 to 180 g. It should be noted that use of the mineral oil is not mandatory as the active compounds are oils themselves. The procedure as described in (Vogel's Drug Discovery and Evaluation Pharmacological assays, 2nd ed, 2002, Springer Verlag, pages 802-803) was followed. Male Wistar-rats were divided into one control and two treated groups. All the animals in three groups received Freund's complete adjuvant (1 mg/rat). This day was designated as day 1. After a period of 24 hr, hexadecyl cis-10-tetradecenoate, 8 was administered at a dose of 300 mg/kg to one treated group and another treated group received 2.5 mg/kg of indomethacin (used as standard drug). Dosing was continued for 15 days (FIG. 3). Control group received the vehicle (mineral oil) without any drug. Paw volumes (left and right) were measured on every alternate day.
All the rats in the control group developed severe polyarthritis as indicated by the increase in the paw volumes. […] Around 80% of the animals in the hexadecyl cis-10-tetradecenoate treated group were protected from developing arthritis in a period of 21 days. The remaining 20% rats were protected from arthritis in a period of 32 days.

[4] = tested on: collagen-induced arthritis; settings: synthesized pure compound, DBA/1 Lac J mice; cited from earlier work

| SMILES | inhibition of inflammation compared with hexadecyl cis-9-tetradecenoate, 4 [1] | dose dependence of inhibition of arthritis [2] | reduction of adjuvant-induced arthritis compared with hexadecyl cis-9-tetradecenoate, 4 ([2]; rats) | animals protected from developing arthritis in a period of 21 days ([3]; 300 mg/kg intraperitoneal, dosing for 15 days) | animals protected from developing arthritis in a period of 21 days ([3]; 300 mg/kg intraperitoneal, dosing for 15 days, listed as hexadecyl cis-10-tetradecenoate) [%] | remaining rats protected from arthritis in a period of 32 days ([3]; 300 mg/kg intraperitoneal, dosing for 15 days, period of 32 days) [%] | protection from polyarthritis (paw volumes) ([3]; 300 mg/kg intraperitoneal, from 24 hr after adjuvant, dosing continued for 15 days) | effective range (dose) for protection of arthritis ([3]; rats, Freund's complete adjuvant) [gm/kg body weight] | anti arthritic properties [4] |
| --- | --- | --- | --- | --- | --- | --- | --- | --- | --- |
| CCC/C=C\CCCCCCCCC(=O)OCCCCCCCCCCCCCCCC [compound 8, hexadecyl cis-10-tetradecenoate] | comparable | dose dependent | comparable | Around 80% | 80 | 20 | protected from the polyarthritis | 0.1 to 1.0 |  |
| CCCC/C=C\CCCCCCCC(=O)OCCCCCCCCCCCCCCCC [compound 4, hexadecyl cis-9-tetradecenoate] |  | dose dependent |  |  |  |  |  |  | confirmed its anti arthritic properties |
